SMILES strings stand for the structures. A value given as a limit tells only on which side of the number the result lay.

The target of this assay is T1, human ALK5 (Homo sapiens, UniProt P36897).
T1 construct: human ALK5 (recombinant TGF β1 N-term GST-tagged, 80-end); GST (N); purchased
T1 sequence (P36897 80-503 limits assumed): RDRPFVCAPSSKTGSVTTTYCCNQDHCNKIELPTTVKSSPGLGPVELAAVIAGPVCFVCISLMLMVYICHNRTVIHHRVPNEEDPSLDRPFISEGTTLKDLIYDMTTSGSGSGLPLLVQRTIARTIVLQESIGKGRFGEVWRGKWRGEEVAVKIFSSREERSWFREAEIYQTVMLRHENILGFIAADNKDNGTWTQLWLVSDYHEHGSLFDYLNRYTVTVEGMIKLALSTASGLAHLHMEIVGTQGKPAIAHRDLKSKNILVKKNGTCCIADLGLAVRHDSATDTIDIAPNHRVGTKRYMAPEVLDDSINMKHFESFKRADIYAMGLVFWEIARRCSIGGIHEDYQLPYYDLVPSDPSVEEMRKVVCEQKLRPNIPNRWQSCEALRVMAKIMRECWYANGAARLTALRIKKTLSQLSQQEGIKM
Briefly: ADP-GLO Kinases assay of ALK5 enzymatic activity. Type of assay: biochemical. Conditions: purified recombinant human ALK5, TGFβ1 peptide substrate, pIC50 converted to pKi by Cheng-Prusoff, high ATP protocol (15 μM) for very potent compounds, 25° C. A digest of the protocol:
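Purified ALK5 preincubated 15 min with compound, then reacted with substrate and ATP; ADP formed read by ADP-Glo luminescence after 120 min or 60 min reaction, all steps at 25° C. 11-point concentration-response; pIC50 converted to pKi via Cheng-Prusoff.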
As a reminder, the Ki is the equilibrium dissociation constant of an inhibitor or competing ligand from its target. On to `CN1CCN(CCC(=O)Nc2cc(Nc3cc(-c4cc(Cl)ccc4F)nnc3OC[C@H]3C[C@@H](O)C3)ccn2)CC1` [Example 71, Cis N-(4-{[6-(5-chloro-2-fluorophenyl)-3-[(3-hydroxycyclobutyl)methoxy]pyridazin-4-yl]amino}pyridin-2-yl)-3-(4-methylpiperazin-1-yl)propanamide], for which the inhibitory constant (Ki) is ≤ 0.1 nM. The same measure for `CN1CCN(CCC(=O)Nc2cc(Nc3cc(-c4cc(Cl)ccc4F)nnc3[S+](C)[O-])ccn2)CC1` (stereo not drawn) [Example 17, N-(4-{[6-(5-chloro-2-fluorophenyl)-3-methanesulfinylpyridazin-4-yl]amino}pyridin-2-yl)-3-(4-methylpiperazin-1-yl)propanamide]: 0.126 to 0.316 nM; for `CN1CCN([C@H]2C[C@@H](C(=O)Nc3cc(Nc4cc(-c5cc(Cl)ccc5F)nnc4SCCO)ccn3)C2)CC12CC2` [Example 90, Cis N-(4-{[6-(5-chloro-2-fluorophenyl)-3-[(2-hydroxyethyl)sulfanyl]pyridazin-4-yl]amino}pyridin-2-yl)-3-{4-methyl-4,7-diazaspiro[2.5]octan-7-yl}cyclobutane-1-carboxamide]: ≤ 0.1 nM; for `COCC1(CN(C)c2nnc(-c3cc(Cl)ccc3F)cc2Nc2ccnc(NC(=O)CCN3CCN(C)CC3)c2)CCOC1=O` (racemic) [Example 200, N-(4-{[6-(5-chloro-2-fluorophenyl)-3-({[3-(methoxymethyl)-2-oxooxolan-3-yl]methyl}(methyl)amino)pyridazin-4-yl]amino}pyridin-2-yl)-3-(4-methylpiperazin-1-yl)propanamide]: ≤ 0.1 nM. On to `C[C@@H]1CN(CC(=O)Nc2cc(Nc3cc(-c4cc(Cl)ccc4F)nnc3SCCO)ccn2)C[C@H](C)N1` [Example 193, N-(4-{[6-(5-chloro-2-fluorophenyl)-3-[(2-hydroxyethyl)sulfanyl]pyridazin-4-yl]amino}pyridin-2-yl)-2-(3,5-dimethylpiperazin-1-yl)acetamide], for which the Ki is ≤ 0.1 nM. As to `O=C(O)C1CCN([C@H]2C[C@@H](C(=O)Nc3cc(Nc4cc(-c5cc(Cl)ccc5F)nnc4SCCO)ccn3)C2)CC1` [Example 167, Cis 1-{3-[(4-{[6-(5-chloro-2-fluorophenyl)-3-[(2-hydroxyethyl)sulfanyl]pyridazin-4-yl]amino}pyridin-2-yl)carbamoyl]cyclobutyl}piperidine-4-carboxylic acid], the Ki is 0.126 to 0.316 nM. As for `COC(=O)[C@H]1CN(c2nnc(-c3cc(Cl)ccc3F)cc2Nc2ccnc(NC(=O)CCN3CCN(C)CC3)c2)CCO1` (stereo in doubt) [Example 133, methyl 4-[6-(5-chloro-2-fluorophenyl)-4-({2-[3-(4-methylpiperazin-1-yl)propanamido]pyridin-4-yl}amino)pyridazin-3-yl]morpholine-2-carboxylate], the Ki is 0.126 to 0.316 nM.

For the compound `CN1CCN(CCOc2nnc(-c3cc(Cl)ccc3F)cc2Nc2ccnc3[nH]ccc23)CC1` [Example 37, 6-(5-chloro-2-fluorophenyl)-3-[2-(4-methylpiperazin-1-yl)ethoxy]-N-{1H-pyrrolo[2,3-b]pyridin-4-yl}pyridazin-4-amine], the Ki is 0.398 to 3.16 nM. In the case of `CN1CCN(CCOc2ccc3c(Nc4cc(-c5cc(Cl)ccc5F)nnc4OCC(F)(F)F)ccnc3c2)CC1` [Example 51, N-[6-(5-chloro-2-fluorophenyl)-3-(2,2,2-trifluoroethoxy)pyridazin-4-yl]-7-[2-(4-methylpiperazin-1-yl)ethoxy]quinolin-4-amine], the Ki is ≤ 0.1 nM. With `CN1CCN(CCC(=O)Nc2cc(Nc3cc(-c4cc(Cl)ccc4F)nnc3SC3(C)CCOC3=O)ccn2)CC1` (racemic) [Example 192, N-(4-{[6-(5-chloro-2-fluorophenyl)-3-[(3-methyl-2-oxooxolan-3-yl)sulfanyl]pyridazin-4-yl]amino}pyridin-2-yl)-3-(4-methylpiperazin-1-yl)propanamide], the inhibition constant (Ki) was 0.126 to 0.316 nM.

Turning to `Nc1cc(Nc2cc(-c3cc(Cl)ccc3F)nnc2OCC(F)F)ccn1` [Example 53, N4-[6-(5-chloro-2-fluorophenyl)-3-(2,2-difluoroethoxy)pyridazin-4-yl]pyridine-2,4-diamine], the inhibition constant (Ki) was 0.398 to 3.16 nM. The same measure for `CN1CCN(CCC(=O)Nc2cc(Nc3cc(-c4cc(Cl)ccc4F)nnc3N(C)CC3(CO)CCOC3=O)ccn2)CC1` (stereo not drawn) [Example 152, N-(4-{[6-(5-chloro-2-fluorophenyl)-3-({[3-(hydroxymethyl)-2-oxooxolan-3-yl]methyl}(methyl)amino)pyridazin-4-yl]amino}pyridin-2-yl)-3-(4-methylpiperazin-1-yl)propanamide]: ≤ 0.1 nM.

As for `CN1CCN(CCOc2nnc(-c3cc(Cl)ccc3F)cc2Nc2ccnc(NC(=O)C3CC3)c2)CC1` [Example 36, N-(4-{[6-(5-chloro-2-fluorophenyl)-3-[2-(4-methylpiperazin-1-yl)ethoxy]pyridazin-4-yl]amino}pyridin-2-yl)cyclopropanecarboxamide], the inhibition constant Ki was ≤ 0.1 nM. Take `COc1ccc2c(Nc3cc(-c4cc(Cl)ccc4F)nnc3OCCN3CCN(C)CC3)ccnc2c1` [Example 35, N-[6-(5-chloro-2-fluorophenyl)-3-[2-(4-methylpiperazin-1-yl)ethoxy]pyridazin-4-yl]-7-methoxyquinolin-4-amine]: the Ki is 0.126 to 0.316 nM. The same measure for `CN1CCN(CCC(=O)Nc2cc(Nc3cc(-c4cc(Cl)ccc4F)nnc3OC3CCOC3)ccn2)CC1` (single isomer, unassigned) [Example 75, N-(4-{[6-(5-chloro-2-fluorophenyl)-3-(oxolan-3-yloxy)pyridazin-4-yl]amino}pyridin-2-yl)-3-(4-methylpiperazin-1-yl)propanamide]: ≤ 0.1 nM; for `CN(CCC(O)C(F)(F)F)c1nnc(-c2cc(Cl)ccc2F)cc1Nc1ccnc(NC(=O)CN2C[C@@H]3C[C@H]2CN3C)c1` (mixture of isomers) [Example 130, N-(4-{[6-(5-chloro-2-fluorophenyl)-3-[methyl(4,4,4-trifluoro-3-hydroxybutyl)amino]pyridazin-4-yl]amino}pyridin-2-yl)-2-[(1S,4S)-5-methyl-2,5-diazabicyclo[2.2.1]heptan-2-yl]acetamide]: ≤ 0.1 nM. For the compound `CN1CCN(CCC(=O)Nc2cc(Nc3cc(-c4cc(Cl)ccc4F)nnc3OCC(O)CO)ccn2)CC1` (stereo not drawn) [Example 78, N-(4-{[6-(5-chloro-2-fluorophenyl)-3-(2,3-dihydroxypropoxy)pyridazin-4-yl]amino}pyridin-2-yl)-3-(4-methylpiperazin-1-yl)propanamide], the Ki was ≤ 0.1 nM. For `CN1CCN([C@@H]2CC[C@H](C(=O)Nc3cc(Nc4cc(-c5cc(Cl)ccc5F)nnc4SCCO)ccn3)C2)CC1` (single isomer, unassigned; enantiomer 1) [Example 188, Cis Enantiomer 1 N-(4-{[6-(5-chloro-2-fluorophenyl)-3-[(2-hydroxyethyl)sulfanyl]pyridazin-4-yl]amino}pyridin-2-yl)-3-(4-methylpiperazin-1-yl)cyclopentane-1-carboxamide], the Ki is ≤ 0.1 nM.

As to `CN1CCCN(CC(=O)Nc2cc(Nc3cc(-c4cc(Cl)ccc4F)nnc3OC3CCOC3)ccn2)CC1` (racemic) [Example 72, N-(4-{[6-(5-chloro-2-fluorophenyl)-3-(oxolan-3-yloxy)pyridazin-4-yl]amino}pyridin-2-yl)-2-(4-methyl-1,4-diazepan-1-yl)acetamide], the Ki is ≤ 0.1 nM.

On to `CN1CCN(CCC(=O)Nc2cc(Nc3cc(-c4cc(Cl)ccc4F)nnc3N3CCC3C(=O)O)ccn2)CC1` (stereo not drawn) [Example 151, ammonium 1-[6-(5-chloro-2-fluorophenyl)-4-({2-[3-(4-methylpiperazin-1-yl)propanamido]pyridin-4-yl}amino)pyridazin-3-yl]azetidine-2-carboxylate], for which the Ki is 0.398 to 3.16 nM. Then `CN1CCN([C@H]2C[C@@H](C(=O)Nc3cc(Nc4cc(-c5cc(Cl)ccc5F)nnc4OCc4cccc(O)c4)ccn3)C2)CC1` [Example 119, Cis N-(4-{[6-(5-chloro-2-fluorophenyl)-3-[(3-hydroxyphenyl)methoxy]pyridazin-4-yl]amino}pyridin-2-yl)-3-(4-methylpiperazin-1-yl)cyclobutane-1-carboxamide], with ≤ 0.1 nM. Then `CN1CCN(CCC(=O)Nc2cc(Nc3cc(-c4cc(Cl)ccc4F)nnc3N(C)CC3(C)CCOC3=O)ncn2)CC1` (single isomer, unassigned; enantiomer 1) [Example 138, Enantiomer 1 N-(6-{[6-(5-chloro-2-fluorophenyl)-3-{methyl[(3-methyl-2-oxooxolan-3-yl)methyl]amino}pyridazin-4-yl]amino}pyrimidin-4-yl)-3-(4-methylpiperazin-1-yl)propanamide], with ≤ 0.1 nM. Then `CN1CC2CCC1CN(CC(=O)Nc1cc(Nc3cc(-c4cc(Cl)ccc4F)nnc3SCCO)ccn1)C2` (stereo not drawn) [Example 82, N-(4-{[6-(5-chloro-2-fluorophenyl)-3-[(2-hydroxyethyl)sulfanyl]pyridazin-4-yl]amino}pyridin-2-yl)-2-{6-methyl-3,6-diazabicyclo[3.2.2]nonan-3-yl}acetamide], with ≤ 0.1 nM. As to `Nc1cc(Nc2cc(-c3cc(Cl)ccc3F)nnc2OCC(F)(F)F)ccn1` [Example 49, N4-[6-(5-chloro-2-fluorophenyl)-3-(2,2,2-trifluoroethoxy)pyridazin-4-yl]pyridine-2,4-diamine], the Ki was 0.398 to 3.16 nM.

The values are drawn from patent US20250011299A1, “PYRIDAZINYL AMINO DERIVATIVES AS ALK5 INHIBITORS” (CHIESI FARMACEUTICI S.P.A., priority 2021, published 2025).
